This passage reports RP-LC retention time results from the METLIN SMRT retention time set (Domingo-Almenara et al. 2019).

A short description of the series: gradient 5% acetonitrile 3 min, to 50% in 2 min, to 85% in 15 min, held 3 min, 100 µL/min. To be noted: column: Zorbax Extend-C18 2.1 x 50 mm; eluents: water / acetonitrile, 0.1% formic acid. The essentials:
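Retention time was recorded from adduct peaks, which were picked computationally and each inspected manually. Pure standards ran in mixtures of ~100 molecules on HPLC coupled to a quadrupole time-of-flight mass spectrometer, in positive and negative ionization mode, through a Zorbax Extend-C18 column (2.1 × 50 mm, 1.8 μm) at 100 μL/min. Eluents were water and acetonitrile, each with 0.1% formic acid.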
`c1cc2nncn2nc1NC1CCCCC1` showed an RP-LC retention time of 790 s.

For `O=C(NCc1ccco1)c1ncoc1-c1ccccc1C(=O)N1CCCC1`, the RP-LC retention time stood at 711 s.

Turning to `Cc1nc2ccccn2c(=O)c1NC(=O)Nc1cccs1`, the RP-LC retention time came to 566 s.

As for `CCc1ccc(C(=O)N2CCN(c3nnc4cccc(C)n34)CC2)cc1`, the RP-LC retention time is 691 s.

Compound `Cc1ccc(Cn2cccc2C(=O)C(=O)Nc2ccc3c(c2)OCCO3)cc1` returned an RP-LC retention time of 1090 s.

In turn, `O=C(c1ccoc1)N1CCN(S(=O)(=O)c2cc(-c3noc(C4CCC4)n3)cs2)CC1` came in with an RP-LC retention time of 943 s.

The compound `O=C(Cc1csc(NC(=O)NC2CCCCC2)n1)NCCc1ccc(Cl)cc1` had an RP-LC retention time of 805 s.

`Cc1cccc(NC(=O)Cn2nc3n(c2=O)CCCCC3)c1C` registered an RP-LC retention time of 675 s.

The compound `Cc1cccc(S(=O)(=O)N2CCC(OCc3nc(C)no3)CC2)c1` had an RP-LC retention time of 886 s.

In the case of `CC(C)C(=O)NCc1nc(-c2ccccc2Cl)no1`, the RP-LC retention time amounted to 754 s.

`CCCn1c(=O)sc2cc(S(=O)(=O)N3CCN(C(=O)C4CCN(C(C)=O)CC4)CC3)ccc21` gave an RP-LC retention time of 722 s.

`CC(=O)Nc1cccc2c(C(=O)N3CCN(c4ccccc4Cl)CC3)ccnc12` yielded an RP-LC retention time of 946 s.

For the compound `COc1ccc(-c2cn3c(CC(=O)NC4CC4)csc3n2)cc1OC`, the RP-LC retention time amounted to 607 s.

As to `CCN1CCN(c2cc(C)c3cc(NC(=O)CCC4CCCC4)ccc3n2)CC1`, the RP-LC retention time amounted to 620 s.

With `CCCOc1ccc(CNC(=O)CN2CCN(Cc3ccc(F)cc3)C2=O)cc1`, the RP-LC retention time was 903 s.

With `Cc1ccc(C(C)NC(=O)c2cn(-c3ccc(NC(=O)CC(C)C)cn3)cn2)cc1` (stereo not given), the RP-LC retention time came out at 872 s.

In turn, `Cc1ccc(F)c(NS(=O)(=O)c2cc3n(c2)CCCNC3=O)c1` returned an RP-LC retention time of 654 s.

As to `Cc1ccc(C)n1-c1c(C(=O)N2CCN(c3ccccn3)CC2)sc2ncccc12`, the RP-LC retention time was determined as 690 s.

Take `CCCS(=O)(=O)N1CCC(c2noc(-c3ccncc3)n2)C1` (stereo not given): the RP-LC retention time was determined as 751 s.

Take `Cn1c(=O)c(N2CCC(NC(=O)Nc3ccc(Br)cc3)CC2)nc2ccccc21`: the RP-LC retention time is 977 s.

Consider `CC(C)NC(=O)Cn1c2ccccc2n2c(=O)cc(-c3cccc(Cl)c3)nc12`, for which the RP-LC retention time was found to be 926 s.

Compound `Cc1ccc(S(=O)(=O)CC(=O)Nc2nc(-c3ccc(F)cc3)cs2)cc1` gave an RP-LC retention time of 988 s.

In turn, `Cc1nc(Nc2ncc3c(n2)CC(c2ccc(F)cc2)CC3=O)nc2ccccc12` (stereo not given) gave an RP-LC retention time of 756 s.

`CCN(CC)c1ncnc2c(-c3ccccc3)cn(CC(=O)N3CCCC3)c12` came in with an RP-LC retention time of 674 s.

On to `Cc1ccc(-c2nc3nc(C)cc(C)n3c2Nc2ccccc2)cc1`, for which the RP-LC retention time was determined as 726 s.

For the compound `COc1ccc(NC(=O)N2CCc3nc(-c4ccc(F)cc4)ncc3C2)cc1`, the RP-LC retention time worked out at 906 s.

Compound `COCCO[C@H]1C(=O)N(C2CCN(S(=O)(=O)c3cn(C)cn3)CC2)[C@H]1c1ccncc1` gave an RP-LC retention time of 556 s.

`O=C(NCCC1=CCCCC1)C1CCc2ncc(-c3ccsc3)n2C1` (stereo not given) showed an RP-LC retention time of 601 s.

Regarding `COc1ccccc1NS(=O)(=O)c1cc2n(c1)CCN(C(C)C)C2=O`, the RP-LC retention time amounted to 733 s.

For `CCC(C)NC(=O)c1nccnc1NC(=O)c1ccccc1` (stereo not given), the RP-LC retention time came to 899 s.

Take `Cc1cccc(NC(=O)c2ccc(=O)n(Cc3ccc(F)cc3)n2)n1`: the RP-LC retention time came out at 800 s.

The compound `CCc1nc(-c2csc(S(=O)(=O)N3CCC(C(=O)NCc4cccc(C)c4)CC3)c2)no1` had an RP-LC retention time of 970 s.

In the case of `O=S(=O)(NCCN1CCOC(c2ccccc2)C1)c1ccc2c(c1)CCCC2` (stereo not given), the RP-LC retention time was 632 s.

`CC(C)(C)c1ccc(S(=O)(=O)N2CCC(C(=O)NCc3csc(-c4ccccc4)n3)CC2)cc1`: the RP-LC retention time amounted to 1130 s.

For `CCn1nnc2ccc(-c3noc(-c4ccc(OC)c(OC)c4)n3)cc21`, the RP-LC retention time was 963 s.

`O=C(NC1CCN(c2cc(-c3ccc(Cl)cc3)[nH]n2)C1)c1ccccc1F` (stereo not given) yielded an RP-LC retention time of 777 s.

`CCc1ccccc1S(=O)(=O)N1CCC(C(=O)NCCc2csc(-c3ccccc3)n2)CC1` gave an RP-LC retention time of 1010 s.

`CCc1cccc(C)c1Nc1c(-c2ccc(C)cc2)nc2cnccn12`: the RP-LC retention time was 996 s.

`O=C(c1ccc(F)cc1)N1CCC(n2c(-c3ccco3)nc3cccnc32)C1` (stereo not given): the RP-LC retention time came to 689 s.

Regarding `O=C(Cc1ccc(Cl)cc1)N1CCN(c2ccc(Nc3ccccn3)nn2)CC1`, the RP-LC retention time was 603 s.

Take `Cc1ccsc1C(=O)N1CCC2(CC1)NCc1ccccc1-n1ccnc12`: the RP-LC retention time worked out at 588 s.

`C=CCn1c(C)c(CC(=O)NCCOC)c(=O)n2nc(-c3ccccc3)nc12` came in with an RP-LC retention time of 673 s.

On to `Cc1ccc(C)c(NC(=O)CSc2cc(N3CCN(c4ccccc4F)CC3)ncn2)c1`, for which the RP-LC retention time was 1160 s.

The compound `COCCn1cc2c3c(cccc31)CN(C(=O)c1ccc(Cl)s1)CC2` returned an RP-LC retention time of 1060 s.

Turning to `Cc1ccc(-n2ccc(=O)c(-c3nc(-c4ccccc4Br)no3)n2)cc1C`, the RP-LC retention time was determined as 1020 s.

`COc1ccc(NC(=O)c2nc(C3CCC3)oc2C)cc1C(F)(F)F` showed an RP-LC retention time of 1170 s.

Take `COc1ccc(NC(=O)C2=Cc3cc(Br)ccc3OC2)c(OC)c1`: the RP-LC retention time was 1120 s.

For the compound `CC(C)c1noc(C2(NC(=O)c3cccc(Cl)c3)CCCCC2)n1`, the RP-LC retention time was determined as 1130 s.

`CCc1nc2cc(-c3noc(-c4ccc(C)c(NC(C)=O)c4)n3)ccc2o1` returned an RP-LC retention time of 895 s.

The compound `COc1ccc(CNC(=O)Cn2c(=O)c(CCC(=O)NCC(C)C)nc3ccccc32)cc1` displayed an RP-LC retention time of 762 s.

`CCn1c(C(=O)N2CCN(c3ccc(F)cc3)CC2)cc2c(-c3cccs3)nn(-c3ccccc3)c21` came in with an RP-LC retention time of 1220 s.

Compound `Cc1cccc(C(=O)NCC(=O)Nc2nc3ccccc3[nH]2)c1` had an RP-LC retention time of 631 s.

As to `CN(C)c1ccc(/C=C(\C#N)C(=O)c2ccccc2)cc1`, the RP-LC retention time came out at 1100 s.

The compound `Cc1nnc(C2CCCN(C(=O)COc3ccccc3)C2)s1` (stereo not given) showed an RP-LC retention time of 653 s.

In turn, `COCCNC(=O)C1c2ccccc2C(=O)N(C)C1c1cccs1` (stereo not given) registered an RP-LC retention time of 679 s.

Turning to `Cc1ccc(-n2ncc3c(C)nn(CC(=O)Nc4cc(C)on4)c(=O)c32)c(C)c1`, the RP-LC retention time was 775 s.

In turn, `COCCNC(=O)C1CCCN(C(=O)c2cc(C)cc(C)c2)C1` (stereo not given) returned an RP-LC retention time of 686 s.

On to `CCCn1nnc2cc(-c3noc(C4CC(=O)N(c5ccccc5)C4)n3)ccc21` (stereo not given), for which the RP-LC retention time amounted to 930 s.

`Cc1cc(Cl)ccc1NS(=O)(=O)c1cc(-c2[nH]ncc2C(=O)N(C)C)oc1C` registered an RP-LC retention time of 730 s.

Regarding `CCOc1ccc(-c2ccc(=O)n(Cc3nc(-c4ccccc4C)no3)n2)cc1`, the RP-LC retention time amounted to 1040 s.

The compound `O=C(Nc1ccc(N2CCN(c3ccccc3)C2=O)nc1)C1CCC1` yielded an RP-LC retention time of 844 s.

`CC(=O)N1c2ccc(S(=O)(=O)N3CCCCCC3)cc2CC1C(=O)NCc1ccc(C)cc1` (stereo not given) returned an RP-LC retention time of 929 s.

With `Cc1ccc2c(c1)cc(S(=O)(=O)c1ccccc1)c(=O)n2CC(=O)N1CCCC1`, the RP-LC retention time came out at 817 s.

Compound `COCCc1noc(C2Cc3ccccc3N2C(=O)Nc2ccc3c(c2)OCCO3)n1` (stereo not given) gave an RP-LC retention time of 860 s.

`CCOc1ccc(NC(=O)Cc2c(C)nn(-c3nc(C)cs3)c2C)cc1` displayed an RP-LC retention time of 974 s.

For the compound `COc1ccc(C(=O)NCc2c(C)noc2C)cc1F`, the RP-LC retention time was found to be 693 s.

In turn, `Cc1ccc2c(c1)N(C(=O)N1CCC(C(=O)NCc3ccccc3)CC1)CCO2` yielded an RP-LC retention time of 820 s.

In turn, `COc1ccccc1CNC(=O)Cc1csc(NC(=O)Nc2cccc(Cl)c2)n1` had an RP-LC retention time of 837 s.

`Cc1cc(C)cc(C(=O)Nc2cc(-c3ccccn3)no2)c1` displayed an RP-LC retention time of 911 s.

`Cc1cc(C)cc(N2C(=O)CN(S(C)(=O)=O)CC2(C)C(=O)NCc2ccc(F)cc2)c1` (stereo not given): the RP-LC retention time stood at 827 s.

`CCc1nc2cc(N3CCC(C(=O)NCCN4CCCCC4C)CC3)cnc2nc1CC` (stereo not given) yielded an RP-LC retention time of 605 s.

As to `CCc1nnc(NS(=O)(=O)c2ccc(NC(=O)c3ccco3)cc2)s1`, the RP-LC retention time is 680 s.

In turn, `CNC(=O)N1CCCC1c1nc(C2CN(C(=O)c3cccn3C)C2)no1` (stereo not given) yielded an RP-LC retention time of 629 s.

In the case of `Cc1oc(-c2ccc(NC(=O)C3CCC3)cc2)nc1Cn1cccn1`, the RP-LC retention time was 799 s.

In turn, `Cc1c(CC(=O)NCc2cccnc2)c(=O)n2nc(-c3ccccc3)nc2n1C` showed an RP-LC retention time of 575 s.

On to `CCc1nn2c(S(=O)(=O)NC3CCCC3)c(C)nc2s1`, for which the RP-LC retention time was found to be 799 s.

Compound `Cn1c(=O)n(CCN2CCOCC2)c(=O)c2c1nc1n2CCCN1C1CCCCC1` registered an RP-LC retention time of 627 s.

`CCOc1ccccc1-c1nc(Cc2noc(-c3cccnc3)n2)c(C)o1`: the RP-LC retention time worked out at 894 s.

Compound `CCOC(=O)c1ccc(Nc2ncnc3c2cnn3C)cc1` came in with an RP-LC retention time of 817 s.

For the compound `O=C(O)c1cc(-c2cccs2)n(C2CCS(=O)(=O)C2)n1` (stereo not given), the RP-LC retention time came out at 630 s.
